According to ChEMBL document CHEMBL1201862, “PubChem BioAssay data set” (2004):
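Compound exposure: 48 hours, 5 concentrations, 96-well plates. GI50: concentration for 50% inhibition of growth.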 Active and inactive are the calls of the source. Cut-off read from the data, not from the text of the source: active = GI50 up to about 1.1 µM and inactive = higher.

Legend:
Test in all cases: DTP human tumour cell line panel, 48 h
EKVX = system: EKVX
CAKI-1 = system: CAKI-1
CCRF-CEM = system: CCRF-CEM
RXF 393 = system: RXF 393
SF-295 = system: SF-295
HT-29 = system: HT-29
SK-MEL-2 = system: SK-MEL-2
SK-MEL-5 = system: SK-MEL-5
A498 = system: A498
NCI-H226 = system: NCI-H226
SF-268 = system: SF-268
HCT-116 = system: HCT-116
HOP-62 = system: HOP-62
786-0 = system: 786-0
SNB-75 = system: SNB-75
M14 = system: M14
COLO 205 = system: COLO 205
SF-539 = system: SF-539

Measured: GI50

CCOc1ccccc1NC(=O)CCC(=O)OC
inactive: EKVX > 100 µM | CAKI-1 > 100 µM | CCRF-CEM > 45.6 µM | RXF 393 > 100 µM | SF-295 > 100 µM | HT-29 > 100 µM | SK-MEL-2 > 100 µM | SK-MEL-5 > 100 µM | A498 > 100 µM | NCI-H226 > 100 µM | SF-268 > 100 µM | HCT-116 > 100 µM | HOP-62 > 100 µM | 786-0 > 100 µM | SNB-75 > 100 µM | M14 > 100 µM | COLO 205 > 58.2 µM

O=C(Nc1ccc(Cl)c(Cl)c1)C(=O)C(C(=O)c1ccccc1-c1ccccc1)C1OC(=O)c2ccccc21 (configuration not stated)
inactive: EKVX 20.8 µM | CCRF-CEM 12.1 µM | RXF 393 8.15 µM | SF-295 17.1 µM | HT-29 29.8 µM | SK-MEL-2 11.4 µM | SF-539 10.1 µM | SK-MEL-5 15.1 µM | A498 22.9 µM | NCI-H226 3.04 µM | SF-268 15.8 µM | HCT-116 10.5 µM | HOP-62 13.1 µM | 786-0 11.2 µM | SNB-75 13 µM | M14 14.7 µM | COLO 205 15.6 µM

Cc1ccccc1CN1CC=c2ccccc2=N1
inactive: EKVX 93.5 µM | CAKI-1 > 100 µM | CCRF-CEM > 100 µM | SF-295 > 100 µM | HT-29 > 100 µM | SK-MEL-2 > 100 µM | SF-539 > 100 µM | SK-MEL-5 97.9 µM | A498 > 100 µM | NCI-H226 > 100 µM | SF-268 > 100 µM | HCT-116 > 10 µM | HOP-62 > 100 µM | 786-0 > 100 µM | SNB-75 50.9 µM | M14 > 100 µM | COLO 205 > 100 µM

CC(C)(C)N/N=N/c1cn(C2OC(CO)C(O)C2O)c(=O)[nH]c1=O (configuration not stated)
inactive: EKVX > 100 µM | CAKI-1 > 100 µM | CCRF-CEM 26.2 µM | RXF 393 61.4 µM | SF-295 > 100 µM | HT-29 > 100 µM | SK-MEL-2 > 100 µM | SK-MEL-5 > 100 µM | A498 > 100 µM | NCI-H226 > 100 µM | SF-268 > 100 µM | HCT-116 40.7 µM | HOP-62 > 100 µM | 786-0 > 100 µM | SNB-75 > 100 µM | M14 > 100 µM | COLO 205 37.2 µM

COC(=O)C(CCC1(C)OCCO1)C(C)=O (configuration not stated)
inactive: EKVX > 100 µM | CCRF-CEM > 100 µM | RXF 393 > 100 µM | SF-295 > 100 µM | HT-29 > 100 µM | SK-MEL-2 > 100 µM | SF-539 > 100 µM | SK-MEL-5 > 100 µM | A498 > 100 µM | NCI-H226 > 100 µM | SF-268 > 100 µM | HCT-116 > 100 µM | HOP-62 > 100 µM | 786-0 > 100 µM | SNB-75 > 100 µM | M14 > 100 µM | COLO 205 > 100 µM

CCCCCCCCCCCCCS(=O)(=O)O
inactive: EKVX > 100 µM | CCRF-CEM > 100 µM | RXF 393 > 100 µM | SF-295 > 100 µM | HT-29 > 100 µM | SK-MEL-2 > 100 µM | SF-539 > 100 µM | SK-MEL-5 > 100 µM | A498 > 100 µM | NCI-H226 > 100 µM | SF-268 > 100 µM | HCT-116 > 100 µM | HOP-62 > 100 µM | 786-0 > 100 µM | SNB-75 > 100 µM | M14 > 100 µM | COLO 205 > 100 µM

O=C1C=CC(=CC=C2C=CN(CCCCCCCCCCC(=O)NCCCCCCCCCCCC(=O)O)C=C2)C=C1
inactive: EKVX > 100 µM | CAKI-1 > 100 µM | CCRF-CEM > 100 µM | RXF 393 > 100 µM | SF-295 > 100 µM | HT-29 > 100 µM | SF-539 > 100 µM | SK-MEL-5 > 100 µM | A498 > 100 µM | NCI-H226 > 100 µM | SF-268 > 100 µM | HCT-116 > 100 µM | HOP-62 > 100 µM | 786-0 > 100 µM | SNB-75 > 100 µM | M14 > 100 µM | COLO 205 > 100 µM

CN1CCS(=O)(=O)NC(Cc2ccccc2)C(=O)N2CCCC2C1=O (configuration not stated)
inactive: EKVX > 100 µM | CAKI-1 > 100 µM | CCRF-CEM > 100 µM | SF-295 > 100 µM | HT-29 > 100 µM | SK-MEL-2 > 100 µM | SF-539 > 100 µM | SK-MEL-5 > 100 µM | A498 > 100 µM | NCI-H226 > 100 µM | SF-268 > 100 µM | HCT-116 > 100 µM | HOP-62 > 100 µM | 786-0 > 100 µM | SNB-75 > 100 µM | COLO 205 > 100 µM

COc1cc(CCc2ccc(OC(C)=O)cc2)cc(OC)c1OC
inactive: EKVX > 100 µM | CAKI-1 > 100 µM | CCRF-CEM > 100 µM | RXF 393 > 100 µM | SF-295 > 100 µM | HT-29 > 100 µM | SF-539 > 100 µM | SK-MEL-5 > 100 µM | A498 > 100 µM | NCI-H226 > 100 µM | SF-268 > 100 µM | HCT-116 > 100 µM | HOP-62 > 100 µM | 786-0 > 100 µM | SNB-75 80.5 µM | M14 > 100 µM | COLO 205 > 100 µM
